Structures can show the parent of a compound that is named as a salt.
The molecules below were run against human α7 nAChRs transiently expressed in Xenopus laevis oocytes (Homo sapiens (Human), UniProt P36544) (assay: Oocyte electrophysiology screen (TEVC)). Conditions: 0.01 mM test compound, peak current relative to 0.2 mM ACh.
Assay type: cell-based
Protocol: Oocyte Electrophysiology Screen (% ACh @ 10 μM Oocyte)
The Oocyte Electrophysiology Screen studies were performed under contract by HiQScreen Geneva, Switzerland. All experiments were carried out at human α7 nAChRs transiently expressed in Xenopus laevis oocytes using the method of cDNA expression. Currents evoked by acetylcholine or other agonist ligands were recorded using the standard two-electrode voltage-clamp configuration (TEVC). X. laevis oocytes were prepared and injected using standard procedures. Briefly, ovaries were harvested from X. laevis females that were deeply anesthetized and pithed following the animal rights rule from the Geneva canton. A small piece of ovary was isolated for immediate preparation while the remaining part was placed at 4° C. in a sterile Barth solution containing in mM: NaCl 88, KCl 1, NaHCO3 2.4, HEPES 10, MgSO4.7H2O 0.82, Ca(NO3)2.4H2O 0.33, CaCl2.6H2O 0.41, at pH 7.4, and supplemented with 20 μg/mL of kanamycin, 100 unit/mL penicillin and 100 μg/mL streptomycin. […] Cells were held at −80 mV. Data were filtered at 10 Hz, captured at 100 Hz and analyzed using proprietary data acquisition and analysis software running under Matlab (Mathworks Inc.).
Experimental Protocol and Analysis
After establishing a baseline transmembrane current, acetylcholine (ACh) was applied for 5 seconds at a concentration of 0.2 mM to establish a control ACh-evoked current response. Following a wash period of 90 s in OR2 medium (free of ACh), cells were then exposed for 30 s to the test compound applied at 0.01 mM. The same reference ACh test pulse was immediately given at the end of the compound exposure and again after 90 s of recovery in OR2 Medium (free of ACh or test compound). All data were determined in triplicate. The response evoked by the test compound was expressed as a percentage of that evoked by ACh: Response (% ACh)=100×(Itest/IACh) where Itest is the peak inward current measured during exposure to 0.01 mM of test compound and IACh is the peak inward current measured in the presence of ACh.

Chain of human α7 nAChRs transiently expressed in Xenopus laevis oocytes (P36544 23-502 limits assumed): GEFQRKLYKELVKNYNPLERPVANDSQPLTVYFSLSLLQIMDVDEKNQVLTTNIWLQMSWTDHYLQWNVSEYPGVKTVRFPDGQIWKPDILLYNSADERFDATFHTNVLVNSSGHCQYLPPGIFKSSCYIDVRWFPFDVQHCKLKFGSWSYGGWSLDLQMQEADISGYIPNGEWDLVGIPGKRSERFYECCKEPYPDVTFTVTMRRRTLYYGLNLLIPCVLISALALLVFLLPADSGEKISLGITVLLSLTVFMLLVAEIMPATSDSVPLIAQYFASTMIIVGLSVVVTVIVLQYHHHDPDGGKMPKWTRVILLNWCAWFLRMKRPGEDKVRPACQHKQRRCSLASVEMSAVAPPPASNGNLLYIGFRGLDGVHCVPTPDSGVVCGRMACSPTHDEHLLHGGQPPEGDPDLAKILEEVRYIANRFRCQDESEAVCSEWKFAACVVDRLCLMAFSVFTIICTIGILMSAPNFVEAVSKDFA

SMILES | % ACh @ 10 μM Oocyte
CC1(C)[C@H](NC(=O)c2cc3ccc(C4CCOCC4)cc3s2)C2CCN1CC2 [(R)-50, (R)—N-(2,2-dimethylquinuclidin-3-yl)-6-(tetrahydro-2H-pyran-4-yl)benzo[b]thiophene-2-carboxamide hydrochloride] | 0 % ACh
Cl.O=C(N[C@@H]1C2CCN(CC2)C12CC2)c1cc2c(cn1)OCCO2 [(R)-76, (R)—N-(1′-azaspiro[cyclopropane-1,2′-bicyclo[2.2.2]octan]-3′-yl)-2,3-dihydro-[1,4]dioxino[2,3-c]pyridine-7-carboxamide hydrochloride] | 129 % ACh
O=C(N[C@@H]1C2CCN(CC2)C12CC2)c1cnn2ncccc12 [(R)-80, (R)—N-(1′-azaspiro[cyclopropane-1,2′-bicyclo[2.2.2]octan]-3′-yl)pyrazolo[1,5-b]pyridazine-3-carboxamide hydrochloride] | 0 % ACh
O=C(N[C@@H]1C2CCN(CC2)C12CC2)c1cc2cccnc2s1 [(R)-81, (R)—N-(1′-azaspiro[cyclopropane-1,2′-bicyclo[2.2.2]octan]-3′-yl)thieno[2,3-b]pyridine-2-carboxamide hydrochloride] | 449 % ACh
O=C(N[C@@H]1C2CCN(CC2)C12CC2)c1nc2ccccc2s1 [(R)-82, (R)—N-(1′-azaspiro[cyclopropane-1,2′-bicyclo[2.2.2]octan]-3′-yl)benzo[d]thiazole-2-carboxamide hydrochloride] | 239 % ACh
Cc1nc2cc(C(=O)N[C@@H]3C4CCN(CC4)C34CC4)ccc2s1 [(R)-87, (R)-2-methyl-N-(1′-azaspiro[cyclopropane-1,2′-bicyclo[2.2.2]octan]-3′-yl)benzo[d]thiazole-5-carboxamide hydrochloride] | 341 % ACh
Cc1nc2ccc(C(=O)N[C@@H]3C4CCN(CC4)C34CC4)cc2s1 [(R)-88, (R)-2-methyl-N-(1′-azaspiro[cyclopropane-1,2′-bicyclo[2.2.2]octan]-3′-yl)benzo[d]thiazole-6-carboxamide hydrochloride] | 133 % ACh
O=C(N[C@@H]1C2CCN(CC2)C12CC2)c1cnc2occc2c1 [(R)-89, (R)—N-(1′-azaspiro[cyclopropane-1,2′-bicyclo[2.2.2]octan]-3′-yl)furo[2,3-b]pyridine-5-carboxamide hydrochloride] | 0 % ACh
O=C(N[C@@H]1C2CCN(CC2)C12CC2)c1ccc2occc2n1 [(R)-90, (R)—N-(1′-azaspiro[cyclopropane-1,2′-bicyclo[2.2.2]octan]-3′-yl)furo[3,2-b]pyridine-5-carboxamide hydrochloride] | 3 % ACh
Cc1coc2ccc(C(=O)N[C@@H]3C4CCN(CC4)C34CC4)cc12 [(R)-93, (R)-3-methyl-N-(1′-azaspiro[cyclopropane-1,2′-bicyclo[2.2.2]octan]-3′-yl)benzofuran-5-carboxamide hydrochloride] | 516 % ACh
Cn1cnc2ccc(C(=O)N[C@@H]3C4CCN(CC4)C34CC4)cc21 [(R)-96, (R)-1-methyl-N-(1′-azaspiro[cyclopropane-1,2′-bicyclo[2.2.2]octan]-3′-yl)-1H-benzo[d]imidazole-6-carboxamide hydrochloride] | 0 % ACh
O=C(N[C@@H]1C2CCN(CC2)C12CC2)c1cc2ccc(-n3ccnn3)cc2s1 [(R)-98, (R)—N-(1′-azaspiro[cyclopropane-1,2′-bicyclo[2.2.2]octan]-3′-yl)-6-(1H-1,2,3-triazol-1-yl)benzo[b]thiophene-2-carboxamide hydrochloride] | 3 % ACh
O=C(N[C@@H]1C2CCN(CC2)C12CC2)c1cc2ccc(N3CCC(F)(F)CC3)cc2s1 [(R)-100, (R)-6-(4,4-difluoropiperidin-1-yl)-N-(1′-azaspiro[cyclopropane-1,2′-bicyclo[2.2.2]octan]-3′-yl)benzo[b]thiophene-2-carboxamide hydrochloride] | 1 % ACh
CC(C)Oc1ccc2cc(C(=O)N[C@@H]3C4CCN(CC4)C34CC4)sc2c1 [(R)-102, (R)-6-isopropoxy-N-(1′-azaspiro[cyclopropane-1,2′-bicyclo[2.2.2]octan]-3′-yl)benzo[b]thiophene-2-carboxamide hydrochloride] | 1 % ACh
CS(=O)(=O)c1ccc2cc(C(=O)N[C@@H]3C4CCN(CC4)C34CC4)sc2c1 [(R)-103, (R)-6-(methylsulfonyl)-N-(1′-azaspiro[cyclopropane-1,2′-bicyclo[2.2.2]octan]-3′-yl)benzo[b]thiophene-2-carboxamide hydrochloride] | 2 % ACh
N#Cc1ccc2cc(C(=O)N[C@@H]3C4CCN(CC4)C34CC4)sc2c1 [(R)-104, (R)-6-cyano-N-(1′-azaspiro[cyclopropane-1,2′-bicyclo[2.2.2]octan]-3′-yl)benzo[b]thiophene-2-carboxamide hydrochloride] | 20 % ACh
COc1ccc2cc(C(=O)N[C@@H]3C4CCN(CC4)C3(C)C)sc2c1Cl [(R)-112, (R)-7-chloro-N-(2,2-dimethylquinuclidin-3-yl)-6-methoxybenzo[b]thiophene-2-carboxamide hydrochloride] | 234 % ACh
CC1(C)[C@H](NC(=O)c2cc3cccc(C#N)c3s2)C2CCN1CC2 [(R)-115, (R)-7-cyano-N-(2,2-dimethylquinuclidin-3-yl)benzo[b]thiophene-2-carboxamide hydrochloride] | 215 % ACh
Nc1ncc2cc(C(=O)N[C@@H]3C4CCN(CC4)C34CC4)sc2n1 [(R)-149, (R)-2-amino-N-(1′-azaspiro[cyclopropane-1,2′-bicyclo[2.2.2]octan]-3′-yl) thieno[2,3-d]pyrimidine-6-carboxamide hydrochloride] | 195 % ACh
O=C(N[C@@H]1C2CCN(CC2)C12CC2)c1cc2ccc(F)c(C(F)(F)F)c2s1 [(R)-153, (R)-6-fluoro-N-(1′-azaspiro[cyclopropane-1,2′-bicyclo[2.2.2]octan]-3′-yl)-7-(trifluoromethyl)benzo[b]thiophene-2-carboxamide hydrochloride] | 114 % ACh
O=C(N[C@@H]1C2CCN(CC2)C12CC2)c1cc2cccc(Cl)c2o1 [(R)-164, (R)-7-chloro-N-(1′-azaspiro[cyclopropane-1,2′-bicyclo[2.2.2]octan]-3′-yl)benzofuran-2-carboxamide hydrochloride] | 266 % ACh
Cl.Cn1cnc2ccc(C(=O)N[C@@H]3C4CCN(CC4)C3(C)C)cc21 [(R)-206, (R)-N-(2,2-dimethylquinuclidin-3-yl)-1-methyl-1H-benzo[d]imidazole-6-carboxamide hydrochloride] | 0 % ACh
CC1(C)[C@H](NC(=O)c2cc3ccc(-n4ccnn4)cc3s2)C2CCN1CC2.Cl [(R)-208, (R)-N-(2,2-dimethylquinuclidin-3-yl)-6-(1H-1,2,3-triazol-1-yl)benzo[b]thiophene-2-carboxamide hydrochloride] | 0 % ACh
CC1(C)[C@H](NC(=O)c2cc3ccc(F)c(C(F)(F)F)c3s2)C2CCN1CC2.Cl [(R)-211, (R)-N-(2,2-dimethylquinuclidin-3-yl)-6-fluoro-7-(trifluoromethyl)benzo[b]thiophene-2-carboxamide hydrochloride] | 100 % ACh
CC1(C)[C@H](NC(=O)c2cc3ccc(C4CC4)c(F)c3s2)C2CCN1CC2.Cl [(R)-213, (R)-6-cyclopropyl-N-(2,2-dimethylquinuclidin-3-yl)-7-fluorobenzo[b]thiophene-2-carboxamide hydrochloride] | 60 % ACh
CC1(C)[C@H](NC(=O)c2ccc3c(c2)OCCO3)C2CCN1CC2.Cl [(R)-215, (R)-N-(2,2-dimethylquinuclidin-3-yl)-2,3-dihydrobenzo[b][1,4]dioxine-6-carboxamide hydrochloride] | 86 % ACh
CC1(C)[C@H](NC(=O)c2cc3ccc(Cl)cc3o2)C2CCN1CC2.Cl [(R)-216, (R)-6-chloro-N-(2,2-dimethylquinuclidin-3-yl)benzofuran-2-carboxamide hydrochloride] | 184 % ACh
Cl.Cn1c(C(=O)N[C@@H]2C3CCN(CC3)C2(C)C)cc2ccccc21 [(R)-221, (R)-N-(2,2-dimethylquinuclidin-3-yl)-1-methyl-1H-indole-2-carboxamide hydrochloride] | 188 % ACh
Cl.O=C(N[C@@H]1C2CCN(CC2)C12CC2)c1cc2ccc(OC(F)(F)F)cc2s1 [(R)-248, (R)-N-(1′-azaspiro[cyclopropane-1,2′-bicyclo[2.2.2]octan]-3′-yl)-6-(trifluoromethoxy)benzo[b]thiophene-2-carboxamide hydrochloride] | 1 % ACh
